# Values joined by “and” are separate entries in the source; they are usually repeats but may differ in a detail not shown here. Equal entries are not always repeated.
# How the values were obtained:
# postmenopausal women = settings: unpublished data; cited from earlier work
# alopecia in men = settings: cited from earlier work
# [1] = system: female patients having diffuse or androgenetic, non-epulotic alopecia; assay: Trichograms (anagenic, telogenic, dystrophic hair rates) in randomized placebo-controlled double-blind study; assay type: in vivo, human; settings: for telogenic rate, frontal trichogram / anagenic rate, frontal trichogram / anagenic rate, occipital trichogram / telogenic rate, occipital trichogram: all patients
# Description: The trial was carried out as a randomized, placebo-controlled double-blind study on 40 female patients having diffuse or androgenetic, non-epulotic alopecia, who, after clarification, declared themselves willing to participate in the investigation. […] The treatment period was 6 months. […] 40 women of 20 to 70 years of age with healthy skin and good general health and having androgenetic or diffuse alopecia were tested. Care was taken that none of the women were pregnant or lactating, there was no dermatological local therapy on the scalp and no epulotic alopecia was present. Furthermore, no hair-cosmetic measures were carried out during the study. […] For the investigation of the […] telogenic rates, trichograms were prepared. In this procedure, 5 days in each case after the last hair wash 30 to 50 hairs were obtained frontally approximately 2 cm from the forehead/hair boundary and laterally from the sagittal line in a standardized manner by epilation using a special […]. A 2nd epilation was taken occipitally 2 cm laterally of the protuberantia occipitalis. The trichograms were carried out before the beginning of the study, and after 3 and 6 months' treatment. The hair roots obtained were mounted on slides, analogously counted by means of a light microscope at 20-times magnification and the percentage ratios of the […], telogenic and dystrophic hairs were calculated. All the individual data from the trichogram investigations, the hair shaft measurements and the melatonin measurements were recorded in Microsoft Excel and mean values and standard deviations were calculated. The statistical analysis of the measured values at the various points in time in the two treatment groups was carried out by the SPSS statistics program.
# hair follicle of goats = settings: goats treated over 14 days, vs untreated goats; cited from earlier work
# [2] = system: hair follicles of the cashmere goat; settings: cited from earlier work
# [3] = system: female patients having diffuse or androgenetic, non-epulotic alopecia; assay: Hair shaft measurements (diameter, breaking force, breaking distance) in the same study; assay type: in vivo, human; settings: for power of resistance of hair: frontal hair
# Source text: The treatment period was 6 months. […] From the hair samples obtained for the trichogram, frontally and occipitally at least 10 hairs in each case were used for the hair shaft measurements. These samples were investigated before the beginning of the preparation application and after 3 and 6 months' treatment. For the measurement of the diameter and of the mechanical properties of the hair, 5 hairs from the frontal and occipital taking region of the trichograms were in each case used. For the measurement of the force which had to be used in order to break the hair, the hairs were first stretched, by means of a computer-controlled measuring and control unit at a constant force (Newton), to breaking point. In a manner analagous to the determination of the breaking force, it was possible to determine the stretching distance up to the breaking point by means of the measuring unit. The stretching distance was measured in mm.
# [4] = Toxicity and side effects of melatonin in humans (oral, topical); assay type: in vivo, human; settings: topical application in a nanocolloid preparation and alcoholic solutions, over 60 subjects
# Source text: Although the mechanisms of the action of melatonin are still not comprehensively clarified in detail, melatonin appears to control the adaptation of the organism to environmental stimuli, in particular light and temperature.
# [5] = system: female patients having diffuse or androgenetic, non-epulotic alopecia; assay: Patient questionnaire (success of therapy, side effects); assay type: in vivo, human
# Description: Undesirable pharmaceutical side effects were determined by means of a patient questionnaire. At the end of the study, an additional termination questionnaire was filled in by the patients, in which they could express their views on the success of the therapy, on the chronological occurrence of side effects and on the administration form of the preparation.
# [6] = drug group n=14, starting value
# [7] = patients treated with melatonin
# [8] = drug group, under topical treatment
# [9] = drug group, end of 6-month study
smiles,measurement,setting,value
CC(C)(C)NC(=O)[C@H]1CC[C@H]2[C@@H]3CC[C@H]4NC(=O)C=C[C@]4(C)[C@H]3CC[C@]12C [finasteride],efficacy compared with placebo,postmenopausal women,did not show any superior efficacy compared with placebo
same,cases with slight to marked improvement in the hair density,alopecia in men,66%
same,cases with stopping of the hair loss,alopecia in men,80%
"COc1ccc2[nH]cc(CCNC(C)=O)c2c1 [melatonin, N-acetyl-5-methoxytryptamine]","anagenic rate, occipital trichogram, androgenetic alopecia","[1]; drug group n=6, after treatment",87.8%
same,"telogenic rate, occipital trichogram, androgenetic alopecia","[1]; drug group n=6, month 3",18.3%
same,"telogenic rate, occipital trichogram, androgenetic alopecia","[1]; drug group n=6, month 6, p≦0.035 vs starting result",10.8%
same,"anagenic rate, occipital trichogram, androgenetic alopecia","[1]; drug group n=6, starting value",73.6%
same,"telogenic rate, occipital trichogram, androgenetic alopecia","[1]; drug group n=6, starting value",26.5%
same,"telogenic rate, occipital trichogram, diffuse alopecia","[1]; drug group n=14, after treatment",13.2%
same,"anagenic rate, occipital trichogram, diffuse alopecia","[1]; drug group n=14, after treatment, p=0,02 vs placebo for increase",83.7%
same,"anagenic rate, occipital trichogram, diffuse alopecia",[1]; [6],77.4%
same,"telogenic rate, occipital trichogram, diffuse alopecia",[1]; [6],21.6%
same,"telogenic rate, frontal trichogram","[1]; drug group, after 3 months",16.8%
same,"telogenic rate, frontal trichogram","[1]; drug group, after 6 months",15.9%
same,"anagenic rate, frontal trichogram","[1]; drug group, after treatment with 0.1% melatonin spray (time not given; 6-month study)",82.6%
same,"anagenic rate, occipital trichogram","[1]; drug group, month 3",78.8%
same,"telogenic rate, occipital trichogram","[1]; drug group, month 3",18.1%
same,"anagenic rate, occipital trichogram","[1]; drug group, month 6, p≦0.021 vs starting result",85%
same,"telogenic rate, occipital trichogram","[1]; drug group, month 6, p≦0.048 vs month 3, p≦0.005 over 6 months",12.5%
same,"anagenic rate, occipital trichogram","[1]; drug group, starting value",76.3%
same,"telogenic rate, frontal trichogram","[1]; drug group, starting value",18.9%
same,"telogenic rate, occipital trichogram","[1]; drug group, starting value (month 1)",23.03% and 23%
same,"anagenic rate, frontal trichogram","[1]; drug group, starting value before therapy",80.4%
same,differences in frontal anagenic and telogenic rates after 3 and 6 months compared with starting values,"[1]; drug group, frontal",not significant
same,harmful actions of the preparation on the physiological hair root (dystrophic hair rate),[1]; dystrophic hair always in the normal range,no harmful actions
same,effect on hair follicles (histology of skin biopsies),hair follicle of goats,induction of hair growth by changeover of the hair follicle from the telogenic phase to the proanagenic phase
same,melatonin concentration giving greater growth of the hair shafts than lower dose and control,[2]; 24 hour interval,≥ 150 mg/mL
same,melatonin concentration with best growth rates and maximal total growth,[2]; after 120 hours,300 ng/L
same,"patients with enlargement of the hair diameter, hair taken frontally","[3]; drug group, diagnosis androgenetic alopecia",67%
same,power of resistance of hair,[3]; after 6 months' melatonin treatment,0.61 N
same,power of resistance of hair,"[3]; melatonin treatment, before treatment",0.56 N
same,"patients with improvements of occipital hair parameters, group having diffuse alopecia","[3]; occipital hair, diffuse alopecia, melatonin",86%
same,"patients with enlargement of the hair diameter, hair taken occipitally",[3]; [7],55%
same,"patients with increase in the stretching force, hair taken occipitally",[3]; [7],70%
same,local or systemic side effects,[4],no local or systemic side effects
same,accumulation in the melatonin serum level,6 months' topical treatment,did not occur
same,melatonin plasma level versus physiological night level (not exceeded),[8],≤ 250 pg/ml
same,"melatonin plasma level, individual peak values",[8],180 pg/mL
same,patients in whom the hair loss had stopped,[5]; [9],23%
same,patients in whom the hair loss had worsened,[5]; [9],8%
same,patients stating that the hair loss had improved,[5]; [9],69%
same,occurrence of tiredness compared with the placebo group,"[5]; topical application to the scalp, 6 months",no increased occurrence of tiredness
